Measurements reported in patent US10774084B2, “Adenine derivatives and their use as UV-photoprotective agents” (UNIVERZITA PALACKEHO V OLOMOUCI, priority 2015, dated 2020).

What was measured:
[1] = tested on: Triticum aestivum cv. Hereward leaf segments; test: Senescence bioassay on detached wheat leaf segments (chlorophyll retention); details: for maximum effective concentration: 96 h in the dark; for activity (%) [10^−4 mol · l^−1 BAP = 100%]: at maximum effective concentration
Procedure: Seeds of winter wheat, Triticum aestivum cv. Hereward, were washed under running water for 24 hours and then sown on vermiculite soaked with Knop's solution. They were placed in the growth chamber at 25° C. with a 16/8 h light period at […]. After 7 days, the first leaf was fully developed and the second leaf had started to grow. A tip section of the first leaf, approximately 35 mm long, was removed from 5 seedlings and trimmed slightly to a combined weight of 100 mg. The basal ends of the five leaf tips were placed in the wells of a microtiter polystyrene plate containing 150 μL of the tested derivative solution each. The entire plate was inserted into a plastic box lined with paper tissues soaked in distilled water to prevent leaf sections from drying out. After 96 h incubation in the dark at 25° C., the leaves were removed and chlorophyll extracted by heating at 80° C. for 10 min in 5 mL of 80% ethanol (v/v). The sample volume was then restored to 5 mL by the addition of 80% ethanol (v/v). The absorbance of the extract was recorded at 665 nm. In addition, chlorophyll extracts from fresh leaves and leaf tips incubated in deionised water were measured. The results are means of five replicates and the entire test was repeated twice. […] The compounds to be tested were dissolved in dimethylsulfoxide (DMSO) and the solution brought up to 10^−3 M with distilled water. […] The activity obtained for 10^−4 M of BAP was postulated as 100%. Kinetin was used as the second standard. Newly prepared compounds generally exceeded the efficiency of standard (BAP) by 10% of its activity (Tab. 5).

HaCaT [2] = test: In vitro UVA/UVB photoprotection test on HaCaT; format: cell-based, human
Procedure: Spontaneously Immortalized Aneuploid Human Keratinocyte Cell Line (HaCaT) was bought from CLS (Eppeheim, Germany) and used as an in vitro model. For all experiments the keratinocytes were seeded onto 96-well plates at a density of 1.6×10^5 cells/ml (0.2 ml per well) of growth medium (DMEM supplemented with fetal bovine serum (10%), penicillin ([…]) and streptomycin (100 U/ml)).
Test substances included compounds number 3, 9, 15 and 20. Compounds were dissolved in DMSO and then diluted in serum free medium (DMEM supplemented penicillin ([…]) and streptomycin (100 U/ml)). After 24 h incubation was growth medium changed to serum free medium containing test compounds. The final applied concentration range was 3.9-31.25 μmol/l. As a control, serum free medium supplemented with appropriate concentration of DMSO (0.5%, v/v) was used. Rosmarinic acid was used as positive control. After 60 minutes incubation with test compounds medium was discarded, cells were washed two-times with PBS and PBS supplemented with glucose (1 mg/ml) was applied. To study UVA photoprotection, a plate was exposed to a cytotoxic dose of UVA radiation (10 J/cm2) using a solar simulator SOL 500 (Dr. Hoenle Technology, Germany) equipped with a H1 filter transmitting wavelengths of 320-400 nm. To study UVB photoprotection, a plate was exposed to a cytotoxic dose of UVB radiation (150 mJ/cm2) using the solar simulator equipped with a H2 filter transmitting wavelengths of 295-320 nm. Intensity of UVA or UVB radiation was evaluated before each irradiation by UVA- or UVB-meter. Control (non-irradiated) plates were for the period of irradiation incubated in dark. After UVA or UVB exposure PBS with glucose was discarded and serum free medium was applied. After 24 hours (37° C., 5% CO2) cell damage was evaluated by neutral red (NR) incorporation into viable cells. Medium was discarded and NR solution (0.03% w/v, PBS) was applied. After 60 minutes NR solution was discarded, cells were fixed with a mixture of formaldehyde (0.5%, v/v) and CaCl2 (1%, m/v) in ratio 1:1 and then NR was dissolved in methanol (50%, v/v) with acetic acid (1%, v/v).
After 5 minutes of intensive shaking absorbance was measured at 540 nm. Experiments were performed in four independent repetitions with use of […] to minimize individual sensitivity of donor cells. Photoprotective effect was evaluated by comparison of experimental data (absorbance) of test compounds with a positive control and a negative control (according to the following equation: […]
As . . . absorbance of sample (cells pre-incubated with test compounds in serum free medium and irradiated)
Anc . . . absorbance of negative control (cells pre-incubated with s DMSO in serum free medium and non-irradiated=incubated in dark)
Apc . . . absorbance of positive control (cells pre-incubated with s DMSO in serum free medium and irradiated)

[3] = tested on: Normal human dermal fibroblasts (NHDF); test: In vitro UVA/UVB photoprotection test on NHDF (Example 9); format: cell-based
Source text: Normal human dermal fibroblasts (NHDF) were used as an in vitro model. Cells were isolated from tissue specimens obtained from healthy patients undergoing plastic surgery at the Department of Plastic and Aesthetic Surgery (University Hospital Olomouc). The use of skin tissue was in accordance with the Ethics Committee of the University Hospital and Faculty of Medicine and Dentistry, Palacky University, Olomouc and all patients signed written informed consent. Fibroblasts were used between the 2nd and 4th passage. For all experiments the fibroblasts were seeded onto 96-well plates at a density of 0.8×10^5 cells/ml (0.2 ml per well) of cultivation medium (DMEM supplemented with fetal calf serum (10%, v/v), penicillin ([…]) and streptomycin (100 U/ml)). Test substances included compounds number 1, 3, 9, 15 and 20. Compounds were dissolved in DMSO and then diluted in serum free medium (DMEM supplemented with penicillin ([…]) and streptomycin (100 U/ml)). After 24 h incubation was cultivation medium changed to serum free medium containing test compound or DMSO (negative control). The final applied concentrations range was 3.9-31.3 μmol/ll. As a control serum free medium supplemented with appropriate concentration of DMSO (0.5%, v/v) was used. Rosmarinic acid was used as positive control. Each test compound was in parallel applied on two 96-well plates with NHDF. After 60 minutes incubation medium with test compound was discarded, cells were washed two-times with PBS and PBS supplemented with glucose (1 mg/ml) was applied. To study UVA photoprotection, a plate was exposed to a cytotoxic dose of UVA radiation (7.5 J/cm^2) using a solar simulator SOL 500 (Dr. Hoenle Technology, Germany) equipped with a H1 filter transmitting wavelengths of 320-400 nm. To study UVB photoprotection, a plate was exposed to a cytotoxic dose of UVB radiation (150 mJ/cm^2) using the solar simulator equipped with a H2 filter transmitting wavelengths of 295-320 nm. Intensity of UVA or UVB radiation was evaluated before each irradiation by UVA- or UVB-meter. Control (non-irradiated) plates were for the period of irradiation incubated in dark. After UVA or UVB exposure PBS with glucose was discarded and serum free medium was applied. After 24 hours (37° C., 5% CO2) cell damage was evaluated by neutral red (NR) incorporation into viable cells. Medium was discarded and NR solution (0.03% w/v, PBS) was applied. After 60 minutes NR solution was discarded, cells were fixed with a mixture of formaldehyde (0.5%, v/v) and CaCl2 (1%, m/v) in ratio 1:1 and then NR was dissolved in methanol (50%, v/v) with acetic acid (1%, v/v). After 5 minutes of intensive shaking absorbance was measured at 540 nm. Experiments were performed in four independent repetitions with use of cells from four donors to minimize individual sensitivity of donor cells. Photoprotective effect was evaluated by comparison of experimental data (absorbance) of test compounds with a positive control and a negative control (according to the following equation:
[formula] • As . . . absorbance of sample (cells pre-incubated with test compounds in serum free medium and irradiated) • Anc . . . absorbance of negative control (cells pre-incubated with s DMSO in serum free medium and non-irradiated=incubated in dark) • Apc . . . absorbance of positive control (cells pre-incubated with s DMSO in serum free medium and irradiated)

HaCaT [4] = test: Calcein AM cytotoxicity assay; format: cell-based; details: Homo sapiens, 72 hrs
Source text: (§1) One of the parameters used as the base for cytotoxic analysis is metabolic activity of viable cells. Microtiter assay, which uses the Calcein AM, is now widely used to quantify cell proliferation and cytotoxicity. The quantity of […] Calcein AM corresponds to the number of viable cells in culture. The cell lines of breast cancer (MCF-7), human erythromleukemia (K562), BJ human fibroblast cells (BJ) and human keratinocyte cell line (HaCaT) were used for routine screening of cytotoxicity of the compounds. The cells were maintened in Nunc/Corning 80 cm^2 plastic bottles and grown in media for cell culture (DMEM containing 5 g/l of glucose, 2 mM of glutamin, 100 U/ml of penicilin, 100 μg/ml of streptomycin, 10% of fetal bovine serum and sodium hydrogencarbonate). Cell suspensions were diluted according to cell types and according to expected final cell density (10^4 of cells per well according to characteristics of cell growth), pippeted 80 μl of cell suspension on 96-well microtiter plates. Innoculates were stabilized by 24 hrs preincubation at 37° C. in CO2. Particular concentrations of tested compounds were added in time zero as 20 μl aliquotto wells of microtiter plates. Usually, the compounds were diluted into six concentrations in four-fold dilution series. In routine testing, the highest well concentration was 166.7 μM, of change dependent on the substance. All drug concentrations were examined in duplicates. The incubation of cells with tested derivatives lasted 72 hrs at 37° C., 100% humidity and in the atmosphere of CO2. At the end of the incubation period, the cells were tested and analysed according to the addition of Calcein AM (Molecular probes) solution and the incubation lasted for next 1 hour. Fluorescence (FD) was measured using Labsystem FIA reader Fluorskan Ascent (Microsystems). The survival of tumor cells (The tumor cell survival-TCS) was counted according to equation: […](FDwell with derivative/FDcontrol well)×100%. The value of GI50, that is equal to the concentration of compound at which 50% of tumour cells are terminated. To evaluate the antitumor activity was tested toxicity of new derivatives on panel of cell lines of different histogenetic and species origin (Tab. 6, G150 concentration given in μM). […] Effective derivatives killed tumor cells in concentrations close to 0.1 to 50. None of the newly prepared compounds only reached the value.

[5] = tested on: BJ human fibroblast cells; test: Calcein AM cytotoxicity assay; format: cell-based; details: 72 hrs
Source text: as §1

K562 = test: Calcein AM cytotoxicity assay; format: cell-based; details: Homo sapiens, 72 hrs
Source text: as §1

MCF-7 = test: Calcein AM cytotoxicity assay; format: cell-based; details: Homo sapiens, MCF7, 72 hrs
Source text: as §1

[6] = tested on: skin fibroblasts BJ and keratinocytes HaCaT; test: MTT in vitro cytotoxicity test for skin cells; format: cell-based; details: Homo sapiens; 72 hour treatment; table does not say which cell line (BJ, HaCaT)
Procedure: MTT assay is a standard test of toxicity based on photometric measurement of the ability of metabolically active cells to reduce MTT (3-(4,5-dimethylthiazol-2-yl)-2,5-diphenyltetrazolium bromide). Using the assay, the effects of 72 hour treatments with several concentrations of the compounds (sixfold dilution, maximal concentration=50 microM) on viability of skin fibroblasts BJ and keratinocytes HaCaT were evaluated. About 5,000 cells were seeded per well of a 96-well plate 24 hours before the treatment. DMSO vehiculum was used as a negative control. After 72 hour treatment, new medium with MTT (Sigma, M2128) was added to a final concentration of 0.5 mg/ml. After 3 hours, medium was removed and resulting formazan in the cells was dissolved in DMSO. The absorbance was measured at 570 nm (640 nm reference wavelength). The IC50 values were calculated from the dose-response curves. 6-furfurylaminopurine riboside was used as positive controls.

`Cc1ccsc1CNc1ncnc2c1ncn2C1CCCO1` (centres unmarked) [Compound 10, 6-(3-methylthiophen-2-ylmethylamino)-9-(tetrahydrofuran-2-yl)purine] was tested, and the maximum effective concentration [1] was 10^−4 mol · l^−1 and the “activity (%) [10^−4 mol · l^−1 BAP = 100%]” value (shortened to “activity (%)”) [1] was 110 ± 7%.

With `O=C(/C=C/c1ccc(O)c(O)c1)O[C@H](Cc1ccc(O)c(O)c1)C(=O)O` [RA, rosmarinic acid, reference compound] the “Protection (%)” value (HaCaT [2]; Table 17: UVA-induced damage (10 J/cm2), 3.9 μmol/l) was 23.6%, the “Protection (%)” value (HaCaT [2]; Table 17: UVA-induced damage (10 J/cm2), 7.8 μmol/l) was 42.3% and the “Protection (%)” value (HaCaT [2]; Table 17: UVA-induced damage (10 J/cm2), 15.6 μmol/l) was 36.2%. For the same compound, the “Protection (%)” value (HaCaT [2]; Table 17: UVA-induced damage (10 J/cm2), 31.3 μmol/l) was 44.0%, the “Protection (%)” value (HaCaT [2]; Table 18: titled UVA-induced damage, 3.9 μmol/l) was 22% and the “Protection (%)” value (HaCaT [2]; Table 18: titled UVA-induced damage, 7.8 μmol/l) was 48.5%. The “Protection (%)” value (HaCaT [2]; Table 18: titled UVA-induced damage, 15.6 μmol/l) was 55.7%, the “Protection (%)” value (HaCaT [2]; Table 18: titled UVA-induced damage, 31.3 μmol/l) was 54.3% and the “Protection (%)” value ([3]; UVA 7.5 J/cm^2, 3.9 μmol/l) was 6.1%. For the same compound, the “Protection (%)” value ([3]; UVA 7.5 J/cm^2, 7.8 μmol/l) was 14.7%, the “Protection (%)” value ([3]; UVA 7.5 J/cm^2, 15.6 μmol/l) was 17.0% and the “Protection (%)” value ([3]; UVA 7.5 J/cm^2, 31.3 μmol/l) was 19.3%. The “Protection (%)” value ([3]; UVB 150 mJ/cm^2, 3.9 μmol/l) was 36.8%, the “Protection (%)” value ([3]; UVB 150 mJ/cm^2, 7.8 μmol/l) was 50.9% and the “Protection (%)” value ([3]; UVB 150 mJ/cm^2, 15.6 μmol/l) was 52.9%. For the same compound, the “Protection (%)” value ([3]; UVB 150 mJ/cm^2, 31.3 μmol/l) was 67.7%.

`c1coc(CNc2ncnc3c2ncn3C2CCCO2)c1` (centres unmarked) [6-furfurylamino-9-(tetrahydrofuran-2-yl)purine] was tested, and the GI50 (HaCaT [4]) was greater than 100 µM, the GI50 [5] was greater than 100 µM and the GI50 (K562) was greater than 100 µM. For the same compound, the GI50 (MCF-7) was greater than 100 µM, the maximum effective concentration [1] was 10^−4 mol · l^−1 and the “activity (%)” value [1] was 114 ± 3%.

For `c1ccc(CNc2ncnc3nc[nH]c23)cc1` [BAP, 6-benzylaminopurine, reference compound], the maximum effective concentration [1] was 10^−4 mol · l^−1 and the “activity (%)” value [1] was 100 ± 1%.

In the case of `OC[C@H]1OC(n2cnc3c(NCc4ccco4)ncnc32)[C@H](O)[C@@H]1O` (some centres unmarked) [6-furfurylamino-9-ribosylpurine, reference compound], the IC50 [6] is reported as no more than 3 µM.

For `c1coc(CNc2ncnc3nc[nH]c23)c1` [kinetin, 6-furfurylaminopurine, reference compound], the maximum effective concentration [1] was 10^−4 mol · l^−1 and the “activity (%)” value [1] was 98 ± 4%.
